Data taken from publication PMC12494099, “Discovery and Characterization of Novel IKZF1/3 Glue Degraders against Multiple Hematological Cancer Cell Lines” (Oncology Research, 2025).

How the values were obtained:
Type in all cases: cell-based
endogenous IKZF3 = target: T1, endogenous IKZF3 (Homo sapiens, UniProt Q96SW2+Q9UKT9); assay: Immunoblot analysis of endogenous protein; settings: both NCI-H929 and MV-4-11 cells, 24 h, greater than pomalidomide
T1 construct: endogenous in cells; host or cells: NCI-H929 and MV-4-11
Procedure: (§1) Cells (NCI-H929 and MV-4-11) were plated into 6-well plates. They were then treated with different concentrations (0, 0.01, 0.1, 1, 10 μM) of the compounds (MGD-A7, MGD-C9) or the designated time periods. Afterward, the cells were washed with phosphate-buffered saline (PBS, pH = 7.2–7.4, 1×). Next, they were lysed using RIPA buffer (#R0278-500ML, Sigma-Aldrich, MO, USA), and the cell lysates were precisely measured. Following this, the total protein lysates underwent 10% sodium dodecyl sulfate-polyacrylamide gel electrophoresis (SDS-PAGE). This method efficiently separated the proteins based on their molecular weights. Subsequently, the separated proteins were transferred onto a nitrocellulose membrane (#HATF00010, […], Madison, WI, USA). The membranes were then successively incubated with the indicated primary antibodies. These antibodies were diluted in 5% bovine serum albumin (BSA) in Tris-buffered saline with Tween 20 (TBST, #TF103; Epizyme, Shanghai, China). The incubation was conducted overnight at 4°C with gentle agitation. The secondary antibodies were also diluted in 5% BSA in TBST (#TF103; Epizyme, Shanghai, China). […] Finally, after thorough washing with TBST, the membranes were developed using an enhanced chemiluminescence (ECL) substrate (#WBULS0100, Sigma-Aldrich). The chemiluminescent signal was detected, and membrane images were captured with an Imaging system (Bio-Rad, Hercules, CA, USA). ImageJ analysis software (V1.8.0.112, National Institutes of Health, NIH, Bethesda, MD, USA) was employed to analyze the intensity of protein bands, aiming to quantify the relative expression levels of the target proteins. The half-maximal degradation concentration (DC50) value, which indicates the concentrations of test compounds showing 50% protein degradation efficacy, was calculated using GraphPad Prism 8.0.

endogenous GSPT1 = target: T2, endogenous GSPT1 (Homo sapiens, UniProt P15170); assay: Immunoblot analysis of endogenous protein; settings: both NCI-H929 and MV-4-11 cells, up to 10 μM, 24 h
T2 construct: endogenous in cells; host or cells: NCI-H929 and MV-4-11
Procedure: as §1

endogenous CK1α = target: T3, endogenous CK1α (Homo sapiens, UniProt P48729); assay: Immunoblot analysis of endogenous protein; settings: both NCI-H929 and MV-4-11 cells, up to 10 μM, 24 h
T3 construct: endogenous in cells; host or cells: NCI-H929 and MV-4-11
Procedure: as §1

endogenous IKZF1 = target: T4, endogenous IKZF1 (Homo sapiens, UniProt Q13422+Q96SW2); assay: Immunoblot analysis of endogenous protein; settings: both NCI-H929 and MV-4-11 cells, 24 h, greater than pomalidomide
T4 construct: endogenous in cells; host or cells: NCI-H929 and MV-4-11
Procedure: as §1

[1] = tested on: control vector NCI-H929 cells; assay: Cell apoptosis assay, control vector cells
Procedure: (§2) […] NCI-H929 and MV-4-11 cells were seeded at a density of 1 × 10^6 cells/well in 6-well tissue culture-treated plates. According to the manufacturer’s protocol (Santa Cruz Biotechnology, Inc, Dallas, TX, USA), CRBN CRISPR/Cas9 knockout Plasmid (#sc-412142), CRBN HDR plasmid (#sc-412142-HDR), UltraCruz® Transfection Reagent (#sc-395739) were pre-mixed in Plasmid Transfection Medium (#sc-108062) at a 1:1:2 mass ratio, and cells were transiently transfected in a 37°C, 5% CO2 incubator. After 72 h of infection, the medium was replaced with complete medium containing 3 μg/mL puromycin for 5–7 days. On day 7, GFP-positive cells were sorted as single cells into 96-well plates. Isolated single-cell clones were screened via western blot analysis, using wild-type NCI-H929 or MV-4-11 cells as positive controls.
Cells (NCI-H929 and MV-4-11) were seeded at a density of 1 × 10^6 cells per well into 6-well dishes. […] Apoptosis was assessed using an Annexin V-FITC kit (#ab14085; Abcam, MA, USA) on a FACS Calibur Flow Cytometer (Becton Dickinson, Franklin Lakes, NJ, USA). For cell cycle analysis, cells were fixed in 75% ethanol (−20°C/overnight), washed with PBS (pH = 7.2–7.4, 1×), treated with RNase A (0.2 mg/mL, 37°C/30 min), stained with PI (10 μg/mL), and analyzed on the same instrument. Finally, the samples were analyzed using a FACS Calibur Flow Cytometer.

CRBN^−/− NCI-H929 cells = assay: Cell apoptosis assay, CRBN knockout cells
Procedure: […] NCI-H929 and MV-4-11 cells were seeded at a density of 1 × 10^6 cells/well in 6-well tissue culture-treated plates. […] On day 7, GFP-positive cells were sorted as single cells into 96-well plates. Isolated single-cell clones were screened via western blot analysis, using wild-type NCI-H929 or MV-4-11 cells as positive controls.
Cells (NCI-H929 and MV-4-11) were seeded at a density of 1 × 10^6 cells per well into 6-well dishes. […] Apoptosis was assessed using an Annexin V-FITC kit (#ab14085; Abcam, MA, USA) on a FACS Calibur Flow Cytometer (Becton Dickinson, Franklin Lakes, NJ, USA). […] Finally, the samples were analyzed using a FACS Calibur Flow Cytometer.

IKZF2 = IKZF2 (Homo sapiens, UniProt Q9UKS7); assay: Immunoblot analysis of endogenous protein; design: endogenous in cells; host or cells: NCI-H929 and MV-4-11; settings: NCI-H929 and MV-4-11 cells
Procedure: Cells (NCI-H929 and MV-4-11) were plated into 6-well plates. They were then treated with different concentrations (0, 0.01, 0.1, 1, 10 μM) of the compounds (MGD-A7, MGD-C9) or the designated time periods. Afterward, the cells were washed with phosphate-buffered saline (PBS, pH = 7.2–7.4, 1×). Next, they were lysed using RIPA buffer (#R0278-500ML, Sigma-Aldrich, MO, USA), and the cell lysates were precisely measured. Following this, the total protein lysates underwent 10% sodium dodecyl sulfate-polyacrylamide gel electrophoresis (SDS-PAGE). This method efficiently separated the proteins based on their molecular weights. Subsequently, the separated proteins were transferred onto a nitrocellulose membrane (#HATF00010, […], Madison, WI, USA). The membranes were then successively incubated with the indicated primary antibodies. […] The chemiluminescent signal was detected, and membrane images were captured with an Imaging system (Bio-Rad, Hercules, CA, USA). ImageJ analysis software (V1.8.0.112, National Institutes of Health, NIH, Bethesda, MD, USA) was employed to analyze the intensity of protein bands, aiming to quantify the relative expression levels of the target proteins. The half-maximal degradation concentration (DC50) value, which indicates the concentrations of test compounds showing 50% protein degradation efficacy, was calculated using GraphPad Prism 8.0.

[2] = tested on: control vector NCI-H929 cells; assay: Cell viability, control vector cells; settings: Homo sapiens, NCI-H929, 96 h
Procedure: (§3) Multiple cell lines (NCI-H929, OPM-2, U937, Ocl-Ly3, RPMI-8226, MOLM-13, Skm-1, MUTZ-1, SU-DHL-4, TMD8, U2932, WSU-DLCL-2, MV-4-11 and KG-1 cells) were plated into 96-well plates. The plated at a density of 15,000 cells per well, and each well contained 100 µL of medium. Subsequently, different compounds (MGD-AX, MGD-BX, MGD-CX) were added to each well. These compounds’ concentrations were set at 0, 0.01, 0.033, 0.1, 0.33, 1, 3.3, 10 and 33 μM, and the cells were incubated with the compounds for 96 h. To evaluate the antiproliferative effects of these compounds, the Cell Counting Kit-8 (CCK-8, #CX007, Epizyme, Shanghai, China) was used. All procedures were carried out in strict accordance with the manufacturer’s instructions (Dojindo Laboratories, Mamoto Ken, Japan). The half maximal inhibitory concentrations (IC50) values, which represent the concentrations of the test compounds that can inhibit 50% of cell activity, were calculated using GraphPad Prism 8.0 (GraphPad Software Inc., San Diego, CA, USA).
as §2

[3] = tested on: control vector MV-4-11 cells; assay: Cell viability, control vector cells; settings: Homo sapiens, MV4-11, 96 h
Procedure: as §3, §2

Sequence of IKZF2 (Q96SW2 whole entry partner): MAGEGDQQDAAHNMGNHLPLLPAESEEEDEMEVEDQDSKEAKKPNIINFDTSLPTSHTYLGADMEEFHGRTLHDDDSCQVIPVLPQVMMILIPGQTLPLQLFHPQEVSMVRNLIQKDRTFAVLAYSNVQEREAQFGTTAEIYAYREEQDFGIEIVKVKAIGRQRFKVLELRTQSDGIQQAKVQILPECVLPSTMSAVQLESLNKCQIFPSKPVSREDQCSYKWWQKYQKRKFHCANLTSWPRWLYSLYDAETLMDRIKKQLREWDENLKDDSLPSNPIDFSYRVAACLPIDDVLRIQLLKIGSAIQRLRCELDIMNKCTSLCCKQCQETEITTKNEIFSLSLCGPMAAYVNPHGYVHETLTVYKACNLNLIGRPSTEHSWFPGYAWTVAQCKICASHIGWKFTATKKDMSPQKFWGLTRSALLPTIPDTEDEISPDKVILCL
Sequence of IKZF2 (Q16531 whole entry partner): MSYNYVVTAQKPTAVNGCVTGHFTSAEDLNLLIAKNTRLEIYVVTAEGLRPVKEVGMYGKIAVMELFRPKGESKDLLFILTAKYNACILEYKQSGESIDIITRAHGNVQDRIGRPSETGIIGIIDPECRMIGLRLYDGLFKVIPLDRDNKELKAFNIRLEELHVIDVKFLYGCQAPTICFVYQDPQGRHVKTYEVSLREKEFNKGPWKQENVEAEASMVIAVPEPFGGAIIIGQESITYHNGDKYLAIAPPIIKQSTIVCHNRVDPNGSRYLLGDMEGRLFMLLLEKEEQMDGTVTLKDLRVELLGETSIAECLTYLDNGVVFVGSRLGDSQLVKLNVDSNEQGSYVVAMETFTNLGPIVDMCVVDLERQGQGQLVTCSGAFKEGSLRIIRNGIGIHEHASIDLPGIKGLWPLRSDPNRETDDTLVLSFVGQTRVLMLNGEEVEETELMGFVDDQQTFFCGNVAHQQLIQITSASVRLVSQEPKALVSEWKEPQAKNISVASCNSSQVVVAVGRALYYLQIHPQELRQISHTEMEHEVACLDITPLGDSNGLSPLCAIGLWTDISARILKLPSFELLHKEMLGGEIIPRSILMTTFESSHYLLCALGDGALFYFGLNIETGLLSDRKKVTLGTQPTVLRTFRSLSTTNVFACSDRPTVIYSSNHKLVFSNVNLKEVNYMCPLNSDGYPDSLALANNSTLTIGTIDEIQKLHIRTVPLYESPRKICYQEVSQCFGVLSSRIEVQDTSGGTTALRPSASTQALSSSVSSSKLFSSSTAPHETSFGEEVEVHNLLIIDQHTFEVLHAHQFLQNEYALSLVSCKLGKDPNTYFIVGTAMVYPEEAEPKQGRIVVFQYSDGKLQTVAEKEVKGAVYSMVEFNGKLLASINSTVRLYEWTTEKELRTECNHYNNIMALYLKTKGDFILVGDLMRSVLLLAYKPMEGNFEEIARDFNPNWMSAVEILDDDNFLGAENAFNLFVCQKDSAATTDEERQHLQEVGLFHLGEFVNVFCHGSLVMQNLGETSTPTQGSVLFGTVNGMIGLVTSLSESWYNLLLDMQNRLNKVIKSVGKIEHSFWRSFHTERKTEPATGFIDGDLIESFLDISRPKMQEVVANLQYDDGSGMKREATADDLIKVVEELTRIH
Sequence of IKZF2 (Q9UKS7 whole entry): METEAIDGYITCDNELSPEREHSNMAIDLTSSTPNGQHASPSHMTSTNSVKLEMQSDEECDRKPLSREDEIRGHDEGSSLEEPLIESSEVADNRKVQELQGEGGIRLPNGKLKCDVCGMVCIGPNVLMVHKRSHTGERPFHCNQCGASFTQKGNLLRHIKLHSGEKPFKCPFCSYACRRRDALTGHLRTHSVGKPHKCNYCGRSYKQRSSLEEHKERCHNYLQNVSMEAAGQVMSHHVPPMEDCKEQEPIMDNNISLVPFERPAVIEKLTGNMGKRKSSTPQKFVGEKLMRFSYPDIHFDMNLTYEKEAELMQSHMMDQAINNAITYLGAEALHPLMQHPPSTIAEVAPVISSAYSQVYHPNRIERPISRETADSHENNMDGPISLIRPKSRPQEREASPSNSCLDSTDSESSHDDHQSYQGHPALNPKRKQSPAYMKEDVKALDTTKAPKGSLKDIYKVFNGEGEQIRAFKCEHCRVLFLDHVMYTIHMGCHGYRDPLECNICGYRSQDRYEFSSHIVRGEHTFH
T3 sequence (Q96SW2 whole entry partner): as the sequence (Q96SW2 whole entry partner) above
T3 sequence (Q16531 whole entry partner): as the sequence (Q16531 whole entry partner) above
T3 sequence (P48729 whole entry): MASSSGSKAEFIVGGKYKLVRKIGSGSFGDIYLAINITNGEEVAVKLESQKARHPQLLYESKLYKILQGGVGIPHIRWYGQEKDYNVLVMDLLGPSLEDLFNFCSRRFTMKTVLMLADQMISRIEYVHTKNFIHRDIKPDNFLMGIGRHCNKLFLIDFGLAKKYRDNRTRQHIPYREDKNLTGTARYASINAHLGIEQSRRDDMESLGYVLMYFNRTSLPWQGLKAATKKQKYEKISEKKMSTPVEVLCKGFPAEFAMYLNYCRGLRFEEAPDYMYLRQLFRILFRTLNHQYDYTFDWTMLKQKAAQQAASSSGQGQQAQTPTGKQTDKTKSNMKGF
T2 sequence (Q96SW2 whole entry partner): as the sequence (Q96SW2 whole entry partner) above
T2 sequence (Q16531 whole entry partner): as the sequence (Q16531 whole entry partner) above
T2 sequence (P15170 whole entry): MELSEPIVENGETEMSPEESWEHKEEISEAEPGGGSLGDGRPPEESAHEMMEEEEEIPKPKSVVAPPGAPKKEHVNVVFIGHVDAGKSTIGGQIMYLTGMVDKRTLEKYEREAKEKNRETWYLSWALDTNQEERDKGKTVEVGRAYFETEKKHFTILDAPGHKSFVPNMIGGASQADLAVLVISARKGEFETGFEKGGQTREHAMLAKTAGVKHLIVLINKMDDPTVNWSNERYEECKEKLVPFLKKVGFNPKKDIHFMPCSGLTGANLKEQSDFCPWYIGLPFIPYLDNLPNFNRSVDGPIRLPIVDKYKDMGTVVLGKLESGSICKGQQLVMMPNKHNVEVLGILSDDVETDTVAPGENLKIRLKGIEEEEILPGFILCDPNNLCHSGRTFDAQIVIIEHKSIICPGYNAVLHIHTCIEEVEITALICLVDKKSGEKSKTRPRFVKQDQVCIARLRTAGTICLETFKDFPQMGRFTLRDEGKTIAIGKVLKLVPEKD
T4 sequence (Q13422 whole entry): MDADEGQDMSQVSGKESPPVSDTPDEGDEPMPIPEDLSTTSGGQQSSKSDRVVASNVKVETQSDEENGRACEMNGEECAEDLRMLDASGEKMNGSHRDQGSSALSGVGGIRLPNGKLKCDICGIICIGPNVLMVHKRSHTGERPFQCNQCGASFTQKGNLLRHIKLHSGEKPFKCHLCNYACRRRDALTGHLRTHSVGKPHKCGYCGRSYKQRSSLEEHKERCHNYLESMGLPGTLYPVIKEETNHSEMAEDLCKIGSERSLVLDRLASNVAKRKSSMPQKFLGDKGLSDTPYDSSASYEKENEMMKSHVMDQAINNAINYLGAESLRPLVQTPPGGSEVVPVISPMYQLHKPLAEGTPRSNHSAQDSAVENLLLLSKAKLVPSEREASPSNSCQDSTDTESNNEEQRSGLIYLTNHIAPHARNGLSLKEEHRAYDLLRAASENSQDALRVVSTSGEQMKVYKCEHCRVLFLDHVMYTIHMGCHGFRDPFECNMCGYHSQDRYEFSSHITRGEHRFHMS
T4 sequence (Q96SW2 whole entry): as the sequence (Q96SW2 whole entry partner) above
T4 sequence (Q16531 whole entry partner): as the sequence (Q16531 whole entry partner) above
T1 sequence (Q9UKT9 whole entry): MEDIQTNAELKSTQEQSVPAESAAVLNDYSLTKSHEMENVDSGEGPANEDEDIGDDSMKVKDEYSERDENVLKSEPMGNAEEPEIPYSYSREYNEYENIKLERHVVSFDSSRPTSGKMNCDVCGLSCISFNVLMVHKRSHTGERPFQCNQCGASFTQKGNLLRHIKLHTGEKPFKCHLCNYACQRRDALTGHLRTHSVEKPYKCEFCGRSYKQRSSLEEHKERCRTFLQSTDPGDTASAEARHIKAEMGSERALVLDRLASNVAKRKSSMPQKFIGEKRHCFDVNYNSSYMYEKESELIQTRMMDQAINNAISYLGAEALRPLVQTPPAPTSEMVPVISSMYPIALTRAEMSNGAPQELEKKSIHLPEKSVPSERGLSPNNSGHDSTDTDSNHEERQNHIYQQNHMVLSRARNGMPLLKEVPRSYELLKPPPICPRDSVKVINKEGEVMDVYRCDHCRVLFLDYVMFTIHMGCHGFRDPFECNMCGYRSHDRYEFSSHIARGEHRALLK
T1 sequence (Q96SW2 whole entry): as the sequence (Q96SW2 whole entry partner) above
T1 sequence (Q16531 whole entry partner): as the sequence (Q16531 whole entry partner) above

| SMILES | degradation of endogenous IKZF3 (endogenous IKZF3) | degradation of endogenous GSPT1 (endogenous GSPT1) | degradation of endogenous CK1α (endogenous CK1α) | degradation of endogenous IKZF1 (endogenous IKZF1) | apoptosis (in words) [1] | apoptosis (in words) (CRBN^−/− NCI-H929 cells) | degradation on IKZF2 (IKZF2) | IC50 [2] [µM] | IC50 [3] [µM] |
| --- | --- | --- | --- | --- | --- | --- | --- | --- | --- |
| CN1CCN(Cc2cccc(C(=O)NC3CCC(=O)NC3=O)c2)CC1 (stereo not drawn) [MGD-A7, N-(2,6-dioxopiperidin-3-yl)-3-((4-methylpiperazin-1-yl)methyl)benzamide] | effectively induced the degradation | minimal degradation effects | minimal degradation effects | effectively induced the degradation | induced significant apoptosis | neither compound elicited apoptosis | minimal degradation | 0.638 | 0.676 |
| CN1CCN(Cc2cccc(C(=O)NC3CCC(=O)NC3=O)c2F)C(=O)C1 (stereo not drawn) [MGD-C9, N-(2,6-dioxopiperidin-3-yl)-2-fluoro-3-((4-methyl-2-oxopiperazin-1-yl)methyl)benzamide] | effectively induced the degradation | minimal degradation effects | minimal degradation effects | effectively induced the degradation | induced significant apoptosis | neither compound elicited apoptosis | minimal degradation | 0.313 | 0.198 |
